Legend:
Assay type in all cases: in vivo
Cyperus difformis = experiment: Test Example 3: herbicidal effect by foliage application, Wagner pot (symbol E); conditions: application herbicide amount 320 g/ha, Table 24
In short: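 Scoring took place 3 weeks after application, using fixed criteria. Plants had been raised from seed for 14 days at 25 to 30 °C in submerged alluvial soil before a diluted emulsion of the test compound was sprayed uniformly on the leaves.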

Alopecurus myosuroides [1] = experiment: Test Example 4: herbicidal effect by soil treatment (symbol J); conditions: application herbicide amount 320 g/ha
In short: (§1)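 Seeds were sown in sterilized diluvial soil, covered with about 1.5 cm of soil, and the soil surface was sprayed with a water-diluted emulsion of the compound at a predetermined rate. Plants grew in a greenhouse at 25° C. to 30° C.; effects were scored visually 3 weeks after application.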

wheat [2] = experiment: Test Example 4: effect on crop by soil treatment (symbol e); conditions: application herbicide amount 320 g/ha
In short: (§2)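 Crop seed is sown in spots together with several weed species in a box of sterilized diluvial soil. It is covered by about 1.5 cm of soil and kept in a greenhouse held between 25° C. and 30° C.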

soybean = experiment: Test Example 4: effect on crop by soil treatment (symbol d); conditions: application herbicide amount 320 g/ha
In short: as §2

Alopecurus myosuroides [3] = experiment: Test Example 5: herbicidal effect by foliage application, plastic box (symbol J); conditions: 320 g/ha, 3 weeks after application
In short: (§3)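 Post-emergence spray; diluvial soil (sterilized), ~1.5 cm seed cover; greenhouse 25–30° C; 14-day-old plants; water-diluted emulsion at predetermined dose; visual score at 3 wk post-treatment.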

[4] = tested on: Echinochloa oryzacola Vasing.; experiment: Test Example 2: herbicidal activity, application during weed generation in submerged conditions (symbol A); conditions: Table 23; application herbicide amount 320 g/ha; grade 0-5 by criteria of Test Example 1
In short: (§4)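 Read-out: herbicidal effect on each species rated on a visual scale 3 weeks after treatment. Plants were raised together from seed in flooded alluvial soil (4 cm water) at 25° C. to 30° C. and treated at one to two leaves by water-surface application of diluted emulsion.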

beet = experiment: Test Example 4: effect on crop by soil treatment (symbol f); conditions: application herbicide amount 320 g/ha
In short: as §2

[5] = tested on: Echinochloa oryzacola Vasing.; experiment: Test Example 1: herbicidal activity, application before weed generation in submerged conditions (symbol A); conditions: application herbicide amount 320 g/ha
In short: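 Weed control was rated three weeks after treatment on a 0–5 scale, from 5% or lower up to 90% or more. Pre-emergence water-surface application of diluted emulsion at a predetermined rate was made on the day of sowing, in flooded (4 cm water) pots containing rice seedlings, kept at 25–30 °C under glass.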

[6] = tested on: Echinochloa crus-galli var. crus-galli; experiment: Test Example 4: herbicidal effect by soil treatment (symbol H); conditions: application herbicide amount 320 g/ha
In short: as §1

Amaranthus retroflexus = experiment: Test Example 5: herbicidal effect by foliage application, plastic box (symbol N); conditions: 320 g/ha, 3 weeks after application
In short: as §3

wheat [7] = experiment: Test Example 5: effect on crop by foliage application, plastic box (symbol e); conditions: 320 g/ha, 3 weeks after application
In short: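 Greenhouse culture at 25° C. to 30° C. followed spot-like sowing into sterilized diluvial soil, with seed covered by roughly 1.5 cm of soil.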

Monochoria vaginalis = experiment: Test Example 2: herbicidal activity, application during weed generation in submerged conditions (symbol C); conditions: Table 23; application herbicide amount 320 g/ha; grade 0-5 by criteria of Test Example 1
In short: as §4

SMILES	E herbicidal effect grade (Cyperus difformis)	Herbicidal effect grade, J: Alopecurus myosuroides (Alopecurus myosuroides [1])	Effect on crop grade, e: wheat (wheat [2])	Effect on crop grade, d: soybean (soybean)	J: Alopecurus myosuroides, herbicidal effect (criteria of Test Example 1) (Alopecurus myosuroides [3])	Herbicidal effect grade, A: Echinochloa oryzacola Vasing. [4]	Effect on crop grade, f: beet (beet)	Herbicidal effect grade, A: Echinochloa oryzacola Vasing. [5]	Herbicidal effect grade, H: Echinochloa crus-galli var. crus-galli [6]	N: Amaranthus retroflexus, herbicidal effect (criteria of Test Example 1) (Amaranthus retroflexus)	e: wheat, effect on crop (criteria of Test Example 1) (wheat [7])	Herbicidal effect grade, C: Monochoria vaginalis (Monochoria vaginalis)	J: Alopecurus myosuroides, herbicidal effect grade (Alopecurus myosuroides [3])	N: Amaranthus retroflexus, herbicidal effect grade (Amaranthus retroflexus)	e: wheat, effect on crop grade (wheat [7])
COc1cc(Br)cc(C)c1C1=C(O)CC(CC(C)=O)C1=O (stereo not drawn) [7-027, 2-(4-bromo-2-methoxy-6-methylphenyl)-3-hydroxy-5-(2-oxopropyl)cyclopent-2-enone]	4 (Herbicidal ratio of 70% or higher and lower than 90%)	5 (Herbicidal ratio of 90% or more (almost completely withered))	2 (Herbicidal ratio of 20% or higher and lower than 40%)	0 (Herbicidal ratio of 5% or lower (almost no effect))	1 (Herbicidal ratio of 5% or higher and lower than 20%)	3 (Herbicidal ratio of 40% or higher and lower than 70%)	0 (Herbicidal ratio of 5% or lower (almost no effect))	4 (Herbicidal ratio of 70% or higher and lower than 90%)	5 (Herbicidal ratio of 90% or more (almost completely withered))	0 (Herbicidal ratio of 5% or lower (almost no effect))	0 (Herbicidal ratio of 5% or lower (almost no effect))	2 (Herbicidal ratio of 20% or higher and lower than 40%)			
CC(=O)C1CC(O)=C(c2c(C)cc(C)cc2C)C1=O (stereo not drawn) [8-001]	0 (Herbicidal ratio of 5% or lower (almost no effect))	0 (Herbicidal ratio of 5% or lower (almost no effect))	0 (Herbicidal ratio of 5% or lower (almost no effect))	0 (Herbicidal ratio of 5% or lower (almost no effect))		0 (Herbicidal ratio of 5% or lower (almost no effect))	0 (Herbicidal ratio of 5% or lower (almost no effect))	0 (Herbicidal ratio of 5% or lower (almost no effect))	0 (Herbicidal ratio of 5% or lower (almost no effect))			0 (Herbicidal ratio of 5% or lower (almost no effect))	0 (Herbicidal ratio of 5% or lower (almost no effect))	0 (Herbicidal ratio of 5% or lower (almost no effect))	0 (Herbicidal ratio of 5% or lower (almost no effect))
CON=C(C)C(=O)C1CC(O)=C(c2c(C)cc(C)cc2C)C1=O (stereo not drawn) [8-002]	0 (Herbicidal ratio of 5% or lower (almost no effect))	0 (Herbicidal ratio of 5% or lower (almost no effect))	0 (Herbicidal ratio of 5% or lower (almost no effect))	0 (Herbicidal ratio of 5% or lower (almost no effect))		0 (Herbicidal ratio of 5% or lower (almost no effect))	0 (Herbicidal ratio of 5% or lower (almost no effect))	0 (Herbicidal ratio of 5% or lower (almost no effect))	2 (Herbicidal ratio of 20% or higher and lower than 40%)			0 (Herbicidal ratio of 5% or lower (almost no effect))	4 (Herbicidal ratio of 70% or higher and lower than 90%)	0 (Herbicidal ratio of 5% or lower (almost no effect))	0 (Herbicidal ratio of 5% or lower (almost no effect))
CON=C(C)C(=NOC)C1CC(O)=C(c2c(C)cc(C)cc2C)C1=O (stereo not drawn) [8-003]	0 (Herbicidal ratio of 5% or lower (almost no effect))	0 (Herbicidal ratio of 5% or lower (almost no effect))	0 (Herbicidal ratio of 5% or lower (almost no effect))	0 (Herbicidal ratio of 5% or lower (almost no effect))		0 (Herbicidal ratio of 5% or lower (almost no effect))	0 (Herbicidal ratio of 5% or lower (almost no effect))	0 (Herbicidal ratio of 5% or lower (almost no effect))	0 (Herbicidal ratio of 5% or lower (almost no effect))			0 (Herbicidal ratio of 5% or lower (almost no effect))	0 (Herbicidal ratio of 5% or lower (almost no effect))	0 (Herbicidal ratio of 5% or lower (almost no effect))	0 (Herbicidal ratio of 5% or lower (almost no effect))

Reference: patent US11000033B2, “Ketone or oxime compound, and herbicide” (NISSAN CHEMICAL CORPORATION, priority 2014, dated 2021)
